Like-named read-outs stand apart in the source and are kept apart here.
Assay: in vitro
Type: in vitro ADME
Conditions: human
Procedure: The bidirectional permeability of compounds across the Caco-2 cell monolayer was assessed. The Caco-2 model is a widely used in vitro model for small intestinal absorption and potential for efflux.
Cell culture. Caco-2 cells were grown in DMEM supplemented with 10% fetal bovine serum (FBS), 1% Penicillin-Streptomycin and 1% MEM NEAA. The cells were incubated at 37° C., 5% CO2/95% air and saturated humidity. After reaching 80-90% confluency, the cells were gently detached with trypsin. Cells at passage 39 were seeded on the 24-well BD insert system at the density of 8×10^4 cells/cm^2 and cultured for 19 days with medium changed every 2-3 days. Measure the transepithelial electrical resistance (TEER) value of each well. The wells can be used only when their TEER values are greater than 600 Ohms/cm^2.
Transport assay. After removing the cell culture medium from the 24-well insert plate, the cells were rinsed with warm transport buffer. Appropriate dosing and receiving solutions were applied to the donor and receiver chambers to initiate the transport assay in apical to basolateral (A to B) or basolateral to apical (B to A) directions ([…] for apical and basolateral wells, respectively). Duplicate wells in each direction were used for the test compound and control compound. The plate was incubated in CO2 incubator at 37° C., with 5% CO2/95% air and saturated humidity without shaking. The sample after 10-minute incubation was used as the T0 sample, and the sample after 90-minute incubation was used as the T90 sample. To and T90 samples were collected from the donor and receiver side of each well at the designed timepoint, mixed with the transport buffer and acetonitrile/MeOH (1:1, v/v) and the internal standard for LC/MS/MS analysis. All samples were vortexed and centrifuged at 4000 rpm at 4° C. for 15 minutes, diluted with pure water and stored at 4° C. before bioanalysis by LC/MS/MS.
Sample analysis. The concentrations of test compounds and control compounds in Caco-2 cells were quantitatively determined by LC/MS/MS method after protein precipitation.
Calculations. The apparent permeability (Papp, cm/s), efflux ratio (ER) and recovery parameters were calculated for Caco-2 drug transport assay using the following equations:
[formula] [formula] where VR is the solution volume in the receiver chamber (0.4 mL on the apical side, 1.2 mL on the basolateral side); Area is the surface area for the insert membrane, i.e., 0.3 cm^2 for the area of the monolayer; Time is incubation time, expressed in seconds, i.e., 5400 s (90 min) for the current experiment; Co is the initial concentration of test compound or peak area ratio of control compounds in the donor chamber (μM); VD is the volume in the donor chambers (0.4 mL on the apical side, 1.2 mL on the basolateral side); CD and CR are the final concentrations of test compounds or peak area ratio of control compounds in donor and receiver chambers, respectively.
Compounds with Papp<1.0 are classified as low permeability, Papp between 1-10 are classified as medium permeability, and Papp≥10 are classified as high permeability. An efflux ratio (ER)>2 indicates the compounds are potential substrates for intestinal cell efflux transporters.

[1] = Caco-2 monolayer, apical to basolateral, 90-minute incubation, read-out: Papp, A-B
[2] = Caco-2 monolayer, basolateral to apical, 90-minute incubation, read-out: Papp, B-A
[3] = Caco-2 monolayer, ER>2 indicates potential efflux transporter substrate, read-out: ER (efflux ratio)

Structure (SMILES)	Papp A→B at 90 min (Caco-2) [×10⁻⁶ cm/s]	Papp B→A at 90 min (Caco-2) [×10⁻⁶ cm/s]	efflux ratio at 90 min (Caco-2)	Papp A→B at 90 min [1] [×10⁻⁶ cm/s]	Papp B→A at 90 min [2] [×10⁻⁶ cm/s]	efflux ratio at 90 min [3]
CNc1nc(N)nc2c1ncn2[C@@H]1O[C@H](COC(=O)C(C)C)[C@@H](O)[C@@]1(C)F [Compound 3, ((2R,3R,4R,5R)-5-(2-amino-6-(methylamino)-9H-purin-9-yl)-4-fluoro-3-hydroxy-4-methyltetrahydrofuran-2-yl)methyl isobutyrate]	1.8	3.5	2	–	–	–
N#C[C@@]1(c2ccc3c(N)ncnn23)O[C@H](COP(=O)(O)OCCCCCCCCCCCCCCCC(=O)O)[C@@H](O)[C@H]1O [Compound 8, 16-(((((2R,3S,4R,5R)-5-(4-aminopyrrolo[2,1-f][1,2,4]triazin-7-yl)-5-cyano-3,4-dihydroxytetrahydrofuran-2-yl)methoxy)(hydroxy)phosphoryl)oxy)hexadecanoic acid]	0.2	0.5	2.4	–	–	–
CC(C)CC(=O)OC[C@H]1O[C@@](C#N)(c2ccc3c(N)ncnn23)[C@H](O)[C@@H]1O [Compound 9, ((2R,3S,4R,5R)-5-(4-aminopyrrolo[2,1-f][1,2,4]triazin-7-yl)-5-cyano-3,4-dihydroxytetrahydrofuran-2-yl)methyl 3-methylbutanoate]	3	4.7	1.6	–	–	–
N#C[C@@]1(c2ccc3c(N)ncnn23)O[C@H](COC(=O)CC2CCCCC2)[C@@H](O)[C@H]1O [Compound 10, ((2R,3S,4R,5R)-5-(4-aminopyrrolo[2,1-f][1,2,4]triazin-7-yl)-5-cyano-3,4-dihydroxytetrahydrofuran-2-yl)methyl 2-cyclohexylacetate]	3	4.7	1.6	–	–	–
CC(C)[C@H](N)C(=O)OC[C@H]1O[C@@](C#N)(c2ccc3c(N)ncnn23)[C@H](O)[C@@H]1O [Compound 11, ((2R,3S,4R,5R)-5-(4-aminopyrrolo[2,1-f][1,2,4]triazin-7-yl)-5-cyano-3,4-dihydroxytetrahydrofuran-2-yl)methyl L-valinate]	0.4	0.1	0.4	–	–	–
N#C[C@@]1(c2ccc3c(N)ncnn23)O[C@H](COC(=O)Cc2ccccc2)[C@@H](O)[C@H]1O [Compound 12, ((2R,3S,4R,5R)-5-(4-aminopyrrolo[2,1-f][1,2,4]triazin-7-yl)-5-cyano-3,4-dihydroxytetrahydrofuran-2-yl)methyl 2-phenylacetate]	–	–	–	3	8.9	3
CC(=O)OC[C@H]1O[C@@](C#N)(c2ccc3c(N)ncnn23)[C@H](O)[C@@H]1O [Compound 13, ((2R,3S,4R,5R)-5-(4-aminopyrrolo[2,1-f][1,2,4]triazin-7-yl)-5-cyano-3,4-dihydroxytetrahydrofuran-2-yl)methyl acetate]	0.2	0.6	2.7	–	–	–
CC(C)C(=O)OC[C@H]1O[C@@](C#N)(c2ccc3c(N)ncnn23)[C@H](O)[C@@H]1O [Compound 14, ((2R,3S,4R,5R)-5-(4-aminopyrrolo[2,1-f][1,2,4]triazin-7-yl)-5-cyano-3,4-dihydroxytetrahydrofuran-2-yl)methyl isobutyrate]	2.3	2.2	1	–	–	–
CCC(=O)OC[C@H]1O[C@@](C#N)(c2ccc3c(N)ncnn23)[C@H](O)[C@@H]1O [Compound 15, ((2R,3S,4R,5R)-5-(4-aminopyrrolo[2,1-f][1,2,4]triazin-7-yl)-5-cyano-3,4-dihydroxytetrahydrofuran-2-yl)methyl propionate]	–	–	–	2.9	7	3.4
CC(C)CC(=O)OC[C@H]1O[C@@](C#N)(c2ccc3c(N)ncnn23)[C@H](O)[C@@H]1OC(=O)CC(C)C [Compound 17, (2R,3S,4R,5R)-5-(4-aminopyrrolo[2,1-f][1,2,4]triazin-7-yl)-5-cyano-4-hydroxy-2-(((3-methylbutanoyl)oxy)methyl)tetrahydro furan-3-yl 3-methylbutanoate]	15	21	1.4	–	–	–
CC(C)CC(=O)OC[C@H]1O[C@@](C#N)(c2ccc3c(N)ncnn23)[C@H](O)[C@@H]1OC(=O)CC1CCCCC1 [Compound 18, ((2R,3S,4R,5R)-5-(4-aminopyrrolo[2,1-f][1,2,4]triazin-7-yl)-5-cyano-3-(2-cyclohexylacetoxy)-4-hydroxytetrahydrofuran-2-yl)methyl 3-methylbutanoate]	16	8.8	0.6	–	–	–
CC(C)CC(=O)OC[C@H]1O[C@@](C#N)(c2ccc3c(N)ncnn23)[C@H](O)[C@@H]1OC(=O)Cc1ccccc1 [Compound 20, ((2R,3S,4R,5R)-5-(4-aminopyrrolo[2,1-f][1,2,4]triazin-7-yl)-5-cyano-4-hydroxy-3-(2-phenylacetoxy)tetrahydrofuran-2-yl)methyl 3-methylbutanoate]	–	–	–	10	9.8	1
CC(C)CC(=O)OC[C@H]1O[C@@](C#N)(c2ccc3c(N)ncnn23)[C@H](O)[C@@H]1OC(=O)C(C)C [Compound 22, ((2R,3S,4R,5R)-5-(4-aminopyrrolo[2,1-f][1,2,4]triazin-7-yl)-5-cyano-4-hydroxy-3-(isobutyryloxy)tetrahydrofuran-2-yl)methyl 3-methylbutanoate]	7	10	1.5	–	–	–
CCC(=O)O[C@H]1[C@@H](O)[C@](C#N)(c2ccc3c(N)ncnn23)O[C@@H]1COC(=O)CC(C)C [Compound 23, ((2R,3S,4R,5R)-5-(4-aminopyrrolo[2,1-f][1,2,4]triazin-7-yl)-5-cyano-4-hydroxy-3-(propionyloxy)tetrahydrofuran-2-yl)methyl 3-methylbutanoate]	6.3	8.1	1.3	–	–	–
CC(C)CC(=O)OC[C@H]1O[C@@](C#N)(c2ccc3c(N)ncnn23)[C@H](O)[C@@H]1OCOC(=O)C(C)(C)C [Compound 24, ((2R,3S,4R,5R)-5-(4-aminopyrrolo[2,1-f][1,2,4]triazin-7-yl)-5-cyano-4-hydroxy-3-((pivaloyloxy)methoxy)tetrahydrofuran-2-yl)methyl 3-methylbutanoate]	8.1	3.6	0.44	–	–	–
CC(C)CC(=O)O[C@H]1[C@@H](O)[C@](C#N)(c2ccc3c(N)ncnn23)O[C@@H]1COC(=O)CC1CCCCC1 [Compound 25, (2R,3S,4R,5R)-5-(4-aminopyrrolo[2,1-f][1,2,4]triazin-7-yl)-5-cyano-2-((2-cyclohexylacetoxy)methyl)-4-hydroxytetrahydrofuran-3-yl 3-methylbutanoate]	56	42	0.7	–	–	–
CC(C)[C@H](N)C(=O)O[C@H]1[C@@H](O)[C@](C#N)(c2ccc3c(N)ncnn23)O[C@@H]1COC(=O)CC1CCCCC1 [Compound 27, (2R,3S,4R,5R)-5-{4-aminopyrrolo[2,1-f][1,2,4]triazin-7-yl}-5-cyano-2-{[(2-cyclohexylacetyl)oxy]methyl}-4-hydroxyoxolan-3-yl (2S)-2-amino-3-methylbutanoate]	0.1	9.9	100	–	–	–
CC(=O)O[C@H]1[C@@H](O)[C@](C#N)(c2ccc3c(N)ncnn23)O[C@@H]1COC(=O)CC1CCCCC1 [Compound 29, ((2R,3S,4R,5R)-3-acetoxy-5-(4-aminopyrrolo[2,1-f][1,2,4]triazin-7-yl)-5-cyano-4-hydroxytetrahydrofuran-2-yl)methyl 2-cyclohexylacetate]	2	2.1	1.1	–	–	–
CC(C)C(=O)O[C@H]1[C@@H](O)[C@](C#N)(c2ccc3c(N)ncnn23)O[C@@H]1COC(=O)CC1CCCCC1 [Compound 30, (2R,3S,4R,5R)-5-(4-aminopyrrolo[2,1-f][1,2,4]triazin-7-yl)-5-cyano-2-((2-cyclohexylacetoxy)methyl)-4-hydroxytetrahydrofuran-3-yl isobutyrate]	7.3	7.1	1	–	–	–
